Test results: BindingDB's records for doi:10.1021/jm00055a007 (Abbott Laboratories, 1993)
Square brackets hold non-standard residues; d marks the D form. Peptide text beside a SMILES is read from it. 1Nal = N[C@@H](Cc1cccc2ccccc12)C(=O)O; pGlu = O=C1CC[C@@H](C(=O)O)N1; NMeS = CN[C@@H](CO)C(=O)O

Biological target: Gonadotropin-releasing hormone receptor (Rattus norvegicus) (UniProt P30969)
Sequence (P30969 whole entry, looked up): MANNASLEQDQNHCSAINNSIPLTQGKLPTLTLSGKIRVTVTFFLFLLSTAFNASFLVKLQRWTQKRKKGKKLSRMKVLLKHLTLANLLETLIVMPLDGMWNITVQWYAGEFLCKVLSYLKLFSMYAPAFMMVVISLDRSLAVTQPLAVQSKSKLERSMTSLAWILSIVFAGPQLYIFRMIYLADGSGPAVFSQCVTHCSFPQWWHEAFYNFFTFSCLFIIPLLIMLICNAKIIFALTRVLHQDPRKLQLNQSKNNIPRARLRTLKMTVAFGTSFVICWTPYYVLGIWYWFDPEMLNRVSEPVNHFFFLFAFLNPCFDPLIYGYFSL

| Structure (SMILES) | Ki [nM] |
| --- | --- |
| CCNC(=O)[C@@H]1CCCN1C(=O)[C@H](CCCN=C(N)N)NC(=O)[C@H](CC(C)C)NC(=O)[C@@H](CC(C)C)NC(=O)[C@H](Cc1ccc(O)cc1)NC(=O)[C@H](CO)NC(=O)[C@H](Cc1c[nH]c2ccccc12)NC(=O)[C@H](Cc1ccccc1)N(C)C(=O)[C@@H]1CCC(=O)N1 [leuprolide 2NMePhe] | 12 |
| CC(C)C[C@H](NC(=O)[C@@H](Cc1ccc2ccccc2c1)NC(=O)[C@H](Cc1ccc(O)cc1)NC(=O)[C@H](CO)NC(=O)[C@H](Cc1cccc2ccccc12)N(C)C(=O)[C@H](Cc1cnc[nH]1)NC(=O)[C@@H]1CCC(=O)N1)C(=O)N[C@@H](CCCN=C(N)N)C(=O)N1CCC[C@H]1C(=O)NCC(N)=O [nafarelin 3NMe1Nal] | 0.74 |
| CCNC(=O)[C@@H]1CCCN1C(=O)[C@H](CCCN=C(N)N)NC(=O)[C@H](CC(C)C)NC(=O)[C@@H](CC(C)C)NC(=O)[C@H](Cc1ccc(O)cc1)NC(=O)[C@H](CO)NC(=O)[C@H](Cc1c[nH]c2ccccc12)NC(=O)[C@H](Cc1cnc[nH]1)N(C)C(=O)[C@@H]1CCC(=O)N1 [leuprolide 2 NMeHis] | 33.1 |
| CCNC(=O)[C@@H]1CCCN1C(=O)[C@H](CCCN=C(N)N)N(C)C(=O)[C@H](CC(C)C)NC(=O)[C@@H](CC(C)C)NC(=O)[C@H](Cc1ccc(O)cc1)NC(=O)[C@H](CO)NC(=O)[C@H](Cc1c[nH]c2ccccc12)NC(=O)[C@H](Cc1c[nH]cn1)NC(=O)[C@@H]1CCC(=O)N1 [leuprolide 8NMeArg] | 347 |
| CC(C)C[C@H](NC(=O)[C@@H](Cc1ccc2ccccc2c1)NC(=O)[C@H](Cc1ccc(O)cc1)NC(=O)[C@H](CO)NC(=O)[C@H](Cc1c[nH]c2ccccc12)NC(=O)[C@H](Cc1c[nH]cn1)NC(=O)[C@@H]1CCC(=O)N1)C(=O)N(C)[C@@H](CCCN=C(N)N)C(=O)N1CCC[C@H]1C(=O)NCC(N)=O [nafarelin 8NMeArg] | 28.2 |
| CC(C)C[C@H](NC(=O)[C@@H](Cc1ccc2ccccc2c1)NC(=O)[C@H](Cc1ccc(O)cc1)NC(=O)[C@H](CO)NC(=O)[C@H](Cc1cccc2ccccc12)NC(=O)[C@H](Cc1cnc[nH]1)NC(=O)[C@@H]1CCC(=O)N1)C(=O)N[C@@H](CCCN=C(N)N)C(=O)N1CCC[C@H]1C(=O)NCC(N)=O [nafarelin 31Nal] | 0.03 |
| CC(C)C[C@H](NC(=O)[C@@H](Cc1ccc2ccccc2c1)NC(=O)[C@H](Cc1ccc(O)cc1)NC(=O)[C@H](CO)NC(=O)[C@H](Cc1c[nH]c2ccccc12)NC(=O)[C@H](Cc1ccccc1)NC(=O)[C@@H]1CCC(=O)N1)C(=O)N[C@@H](CCCN=C(N)N)C(=O)N1CCC[C@H]1C(=O)NCC(N)=O [nafarelin 2Phe] | 0.07 |
| CCNC(=O)[C@@H]1CCCN1C(=O)[C@H](CCCN=C(N)N)NC(=O)[C@H](CC(C)C)NC(=O)[C@@H](Cc1c[nH]c2ccccc12)NC(=O)[C@H](Cc1ccc(O)cc1)NC(=O)[C@H](CO)NC(=O)[C@H](Cc1c[nH]c2ccccc12)NC(=O)[C@H](Cc1cnc[nH]1)NC(=O)[C@@H]1CCC(=O)N1 [deslorelin] | 0.01 |
| CCNC(=O)[C@@H]1CCCN1C(=O)[C@H](CCCN=C(N)N)NC(=O)[C@H](CC(C)C)NC(=O)[C@@H](CC(C)C)NC(=O)[C@H](Cc1ccc(O)cc1)NC(=O)[C@H](CO)N(C)C(=O)[C@H](Cc1c[nH]c2ccccc12)NC(=O)[C@H](Cc1c[nH]cn1)NC(=O)[C@@H]1CCC(=O)N1 [leuprolide 4NMeSer] ([pGlu]HW[NMeS]Y[dL]LRP-NHEt) | 1.41 |
| CC(C)C[C@H](NC(=O)[C@@H](Cc1ccc2ccccc2c1)NC(=O)[C@H](Cc1ccc(O)cc1)NC(=O)[C@H](CO)NC(=O)[C@H](Cc1c[nH]c2ccccc12)NC(=O)[C@H](Cc1c[nH]cn1)NC(=O)[C@@H]1CCC(=O)N1)C(=O)N[C@@H](CCCN=C(N)N)C(=O)N1CCC[C@H]1C(=O)N(C)CC(N)=O [nafarelin 10SarNH2] | 0.03 |
| CC(C)C[C@H](NC(=O)[C@@H](Cc1ccc2ccccc2c1)NC(=O)[C@H](Cc1ccc(O)cc1)NC(=O)[C@H](CO)NC(=O)[C@H](Cc1c[nH]c2ccccc12)NC(=O)[C@H](Cc1cnc[nH]1)N(C)C(=O)[C@@H]1CCC(=O)N1)C(=O)N[C@@H](CCCN=C(N)N)C(=O)N1CCC[C@H]1C(=O)NCC(N)=O [nafarelin 2NMeHis] | 1.41 |
| CC(C)C[C@H](NC(=O)[C@@H](Cc1ccc2ccccc2c1)NC(=O)[C@H](Cc1ccc(O)cc1)NC(=O)[C@H](CO)NC(=O)[C@H](Cc1c[nH]c2ccccc12)NC(=O)[C@H](Cc1ccccc1)N(C)C(=O)[C@@H]1CCC(=O)N1)C(=O)N[C@@H](CCCN=C(N)N)C(=O)N1CCC[C@H]1C(=O)NCC(N)=O [nafarelin 2NMePhe] | 0.3 |
| CC(C)C[C@H](NC(=O)[C@@H](Cc1c[nH]c2ccccc12)NC(=O)[C@H](Cc1ccc(O)cc1)NC(=O)[C@H](CO)NC(=O)[C@H](Cc1c[nH]c2ccccc12)NC(=O)[C@H](Cc1c[nH]cn1)NC(=O)[C@@H]1CCC(=O)N1)C(=O)N[C@@H](CCCN=C(N)N)C(=O)N1CCC[C@H]1C(=O)N(C)CC(N)=O [deslorelin 10SarNH2] | 0.32 |
| CC(C)C[C@@H](C(=O)N[C@@H](CCCN=C(N)N)C(=O)N1CCC[C@H]1C(=O)NCC(N)=O)N(C)C(=O)[C@@H](Cc1ccc2ccccc2c1)NC(=O)[C@H](Cc1ccc(O)cc1)NC(=O)[C@H](CO)NC(=O)[C@H](Cc1c[nH]c2ccccc12)NC(=O)[C@H](Cc1c[nH]cn1)NC(=O)[C@@H]1CCC(=O)N1 [nafarelin 7NMeLeu] | 0.03 |
| CCNC(=O)[C@@H]1CCCN1C(=O)[C@H](CCCN=C(N)N)NC(=O)[C@H](CC(C)C)NC(=O)[C@@H](Cc1c[nH]c2ccccc12)NC(=O)[C@H](Cc1ccc(O)cc1)N(C)C(=O)[C@H](CO)NC(=O)[C@H](Cc1c[nH]c2ccccc12)NC(=O)[C@H](Cc1c[nH]cn1)NC(=O)[C@@H]1CCC(=O)N1 [deslorelin 5NMeTyr] | 0.09 |
| CCNC(=O)[C@@H]1CCCN1C(=O)[C@H](CCCN=C(N)N)NC(=O)[C@H](CC(C)C)NC(=O)[C@@H](CC(C)C)NC(=O)[C@H](Cc1ccc(O)cc1)NC(=O)[C@H](CO)NC(=O)[C@H](Cc1cccc2ccccc12)NC(=O)[C@H](Cc1c[nH]cn1)NC(=O)[C@@H]1CCC(=O)N1 [leuprolide 31Nal] ([pGlu]H[1Nal]SY[dL]LRP-NHEt) | 0.09 |
| CC(C)C[C@H](NC(=O)[C@@H](Cc1ccc2ccccc2c1)N(C)C(=O)[C@H](Cc1ccc(O)cc1)NC(=O)[C@H](CO)NC(=O)[C@H](Cc1c[nH]c2ccccc12)NC(=O)[C@H](Cc1c[nH]cn1)NC(=O)[C@@H]1CCC(=O)N1)C(=O)N[C@@H](CCCN=C(N)N)C(=O)N1CCC[C@H]1C(=O)NCC(N)=O [nafarelin 6NMe2Nal] | 2.69 |
| CC(C)C[C@H](NC(=O)[C@@H](Cc1ccc2ccccc2c1)NC(=O)[C@H](Cc1ccc(O)cc1)N(C)C(=O)[C@H](CO)NC(=O)[C@H](Cc1c[nH]c2ccccc12)NC(=O)[C@H](Cc1c[nH]cn1)NC(=O)[C@@H]1CCC(=O)N1)C(=O)N[C@@H](CCCN=C(N)N)C(=O)N1CCC[C@H]1C(=O)NCC(N)=O [nafarelin 5NMeTyr] | 0.03 |
| CCNC(=O)[C@@H]1CCCN1C(=O)[C@H](CCCN=C(N)N)NC(=O)[C@H](CC(C)C)N(C)C(=O)[C@@H](Cc1c[nH]c2ccccc12)NC(=O)[C@H](Cc1ccc(O)cc1)NC(=O)[C@H](CO)NC(=O)[C@H](Cc1c[nH]c2ccccc12)NC(=O)[C@H](Cc1cnc[nH]1)NC(=O)[C@@H]1CCC(=O)N1 [deslorelin 7NMeLeu] | 0.06 |
